Tested on: R6/2 mice
Assay: Cued Two-Choice Swim Test
Assay type: in vivo, mouse
Settings: for Cued 2-CST Reversal, Correct Choice: p vs Vehicle-treated R6/2 mice / Cued 2-CST Acquisition, % of Mice Reaching Criterion: p vs Vehicle-treated R6/2 mice: BID; for Cued 2-CST Reversal, Correct Choice: p vs Vehicle-treated R6/2 mice: ANOVA; for Cued 2-CST Acquisition, % of Mice Reaching Criterion: p vs Vehicle-treated R6/2 mice: at 9 Weeks, Fisher's exact test
Method: The cued two-choice swim test was performed at 9 weeks of age. Testing was conducted under low light, white light conditions. The mice were taught to swim to (acquisition), or away from (reversal), a light positioned over the escape platform. Animals were placed within a rectangular tank (76 cm x 30 cm x 30 cm) filled with water maintained at 25°C ± 1°C. The water was rendered opaque by the addition of non-toxic white paint. The escape platform was located 0.5 cm below the surface of the water at one end of the tank. A light source with a 25W bulb (white light), oriented toward the water, was clipped to one side of the tank above the escape platform (7 cm in diameter with the borders slanted and roughened to help the rodents climb to it). Under these conditions, the light intensity is measured as 200 lux on the illuminated side of the tank, and 3 lux on the dark side of the tank. The platform was located on the lit side of the arena across acquisition trials, although the location of the lit side within the room relative to the mouse’s entry point was varied. The location of the bulb and platform was different on different trials for the same mouse. On each trial, mice were placed into the middle of the tank and allowed to swim for up to 60 sec, or until they found the platform. […] During all acquisition days, mice were given 8 trials per day (4 blocks of 2 trials, separated by an interblock interval of 20-30 minutes). Training continued in this way until each mouse performed at 75% correct choices for 2 consecutive days; upon reaching this criterion for successful acquisition of the task, mice were placed into the reversal phase on an individual basis. During reversal training, (4 blocks of 2 trials per day), the platform was placed on the dark side of the tank. On each trial during testing days, the latency to reach the platform was recorded (60 seconds if the platform was not reached) and the trial was scored as either “correct”, “incorrect” or “no choice”. The maximum number of days of acquisition was 12 days. All mice went from acquisition into the reversal phase and the experiment was stopped when 2 consecutive days of 75% criterion was reached or after a maximum of 7 days of reversal testing. A correct choice was scored if the animal turned in the direction of the platform and successfully mounted the platform. An incorrect choice was scored if the animal swam in the direction opposite the platform. […] To make a choice, a mouse had to swim within 20 cm of either end of the tank.
All values are presented as mean ± Standard Error of Mean (SEM), and differences are considered to be statistically significant at the p < 0.05 level. Statistical analysis was performed using StatsDirect statistical software. Differences between group means were analyzed by 1-way-ANOVA followed by Dunnett’s test (comparison to the control (=vehicle treated TG mice) group). The acquisition of the Cued two-choice swim test was analyzed using Fisher’s exact test.

SMILES: CN1C(=O)c2nc(Cc3ccc(C(F)(F)F)cc3)[nH]c2N2C1=N[C@H]1CCC[C@H]12 [SCH-51866, (+)-cis-5,6a,7,8,9,9a-hexahydro-2-[4-[trifluro-methyl]phenylmethyl]-5-methyl-cylopent[4,5]imidazo [2,1-b]purin-4(3H)one]
- Cued Two-Choice Swim Test: learning phase, reversal learning, latency to make the choice, effect in words (R6/2 mice, 9 weeks of age): did not improve any of these parameters
- Cued 2-CST Reversal, Correct Choice: p vs Vehicle-treated R6/2 mice (Test Day 1, 10 mg/kg p.o.): ANOVA: p=0.117
- Cued 2-CST Reversal, Correct Choice: p vs Vehicle-treated R6/2 mice (Test Day 1, 30 mg/kg p.o.): ANOVA: p=0.117
- Cued 2-CST Reversal, Correct Choice: p vs Vehicle-treated R6/2 mice (Test Day 2, 10 mg/kg p.o.): ANOVA: p=0.311
- Cued 2-CST Reversal, Correct Choice: p vs Vehicle-treated R6/2 mice (Test Day 2, 30 mg/kg p.o.): ANOVA: p=0.311
- Cued 2-CST Reversal, Correct Choice: p vs Vehicle-treated R6/2 mice (Test Day 3, 10 mg/kg p.o.): ANOVA: p=0.573
- Cued 2-CST Reversal, Correct Choice: p vs Vehicle-treated R6/2 mice (Test Day 3, 30 mg/kg p.o.): ANOVA: p=0.573
- Cued 2-CST Reversal, Correct Choice: p vs Vehicle-treated R6/2 mice (Test Day 4, 10 mg/kg p.o.): ANOVA: p=0.206
- Cued 2-CST Reversal, Correct Choice: p vs Vehicle-treated R6/2 mice (Test Day 4, 30 mg/kg p.o.): ANOVA: p=0.206
- Cued 2-CST Reversal, Correct Choice: p vs Vehicle-treated R6/2 mice (Test Day 5, 10 mg/kg p.o.): ANOVA: p=0.057
- Cued 2-CST Reversal, Correct Choice: p vs Vehicle-treated R6/2 mice (Test Day 5, 30 mg/kg p.o.): ANOVA: p=0.057
- Cued 2-CST Reversal, Correct Choice: p vs Vehicle-treated R6/2 mice (Test Day 6, 10 mg/kg p.o.): ANOVA: p=0.140
- Cued 2-CST Reversal, Correct Choice: p vs Vehicle-treated R6/2 mice (Test Day 6, 30 mg/kg p.o.): ANOVA: p=0.140
- Cued 2-CST Acquisition, % of Mice Reaching Criterion: p vs Vehicle-treated R6/2 mice (Test Day 2, 10 mg/kg p.o.): p>0.999
- Cued 2-CST Acquisition, % of Mice Reaching Criterion: p vs Vehicle-treated R6/2 mice (Test Day 2, 30 mg/kg p.o.): p=0.487
- Cued 2-CST Acquisition, % of Mice Reaching Criterion: p vs Vehicle-treated R6/2 mice (Test Day 3, 10 mg/kg p.o.): p>0.999
- Cued 2-CST Acquisition, % of Mice Reaching Criterion: p vs Vehicle-treated R6/2 mice (Test Day 3, 30 mg/kg p.o.): p>0.999
- Cued 2-CST Acquisition, % of Mice Reaching Criterion: p vs Vehicle-treated R6/2 mice (Test Day 4, 10 mg/kg p.o.): p>0.999
- Cued 2-CST Acquisition, % of Mice Reaching Criterion: p vs Vehicle-treated R6/2 mice (Test Day 4, 30 mg/kg p.o.): p>0.999
- Cued 2-CST Acquisition, % of Mice Reaching Criterion: p vs Vehicle-treated R6/2 mice (Test Day 5, 10 mg/kg p.o.): p>0.999
- Cued 2-CST Acquisition, % of Mice Reaching Criterion: p vs Vehicle-treated R6/2 mice (Test Day 5, 30 mg/kg p.o.): p>0.999
- Cued 2-CST Acquisition, % of Mice Reaching Criterion: p vs Vehicle-treated R6/2 mice (Test Day 6, 10 mg/kg p.o.): p=0.313
- Cued 2-CST Acquisition, % of Mice Reaching Criterion: p vs Vehicle-treated R6/2 mice (Test Day 6, 30 mg/kg p.o.): p>0.999
- Cued 2-CST Acquisition, % of Mice Reaching Criterion: p vs Vehicle-treated R6/2 mice (Test Day 7, 10 mg/kg p.o.): p=0.508
- Cued 2-CST Acquisition, % of Mice Reaching Criterion: p vs Vehicle-treated R6/2 mice (Test Day 7, 30 mg/kg p.o.): p=0.752
- Cued 2-CST Acquisition, % of Mice Reaching Criterion: p vs Vehicle-treated R6/2 mice (Test Day 8, 10 mg/kg p.o.): p=0.313
- Cued 2-CST Acquisition, % of Mice Reaching Criterion: p vs Vehicle-treated R6/2 mice (Test Day 8, 30 mg/kg p.o.): p=0.751
- Cued 2-CST Acquisition, % of Mice Reaching Criterion: p vs Vehicle-treated R6/2 mice (Test Day 9, 10 mg/kg p.o.): p>0.999
- Cued 2-CST Acquisition, % of Mice Reaching Criterion: p vs Vehicle-treated R6/2 mice (Test Day 9, 30 mg/kg p.o.): p>0.999
- Cued 2-CST Acquisition, % of Mice Reaching Criterion: p vs Vehicle-treated R6/2 mice (Test Day 10, 10 mg/kg p.o.): p>0.999
- Cued 2-CST Acquisition, % of Mice Reaching Criterion: p vs Vehicle-treated R6/2 mice (Test Day 10, 30 mg/kg p.o.): p>0.999
- Cued 2-CST Acquisition, % of Mice Reaching Criterion: p vs Vehicle-treated R6/2 mice (Test Day 11, 10 mg/kg p.o.): p>0.999
- Cued 2-CST Acquisition, % of Mice Reaching Criterion: p vs Vehicle-treated R6/2 mice (Test Day 11, 30 mg/kg p.o.): p=0.716
- Cued 2-CST Acquisition, % of Mice Reaching Criterion: p vs Vehicle-treated R6/2 mice (Test Day 12, 10 mg/kg p.o.): p>0.999
- Cued 2-CST Acquisition, % of Mice Reaching Criterion: p vs Vehicle-treated R6/2 mice (Test Day 12, 30 mg/kg p.o.): p>0.999
